Assay [1] concerns the target Angiotensin-converting enzyme (Homo sapiens) (UniProt P12821). Kind of assay: Selectivity index, ratio of Ki for human somatic ACE N-terminal domain to human somatic ACE C-terminal domain using MCA-RPPGFSAFK-Dnp-OH as substrate by fluorescence based analysis.
The target is the same in assay [2]. In words: Selectivity index, ratio of Ki for human wild type ACE N-domain to Ki for human testis ACE C-domain (unknown origin) using Abz-FRK(Dnp)P-OH as substrate by fluorescence based analysis.
The target is the same in assay [3]. In words: Selectivity index, ratio of Ki for human ACE N-domain soluble form (1 to 629 residues) expressed in CHO cells to Ki for human testis ACE C-domain lacking unique O-glycosylated region, transmembrane anchor and cytoplasmic tail expressed in CHO cells. The format is cell-based.

The structures appear in SMILES notation.

Angiotensin-converting enzyme (Homo sapiens), sequence (P12821 whole entry, the tested form may be a part): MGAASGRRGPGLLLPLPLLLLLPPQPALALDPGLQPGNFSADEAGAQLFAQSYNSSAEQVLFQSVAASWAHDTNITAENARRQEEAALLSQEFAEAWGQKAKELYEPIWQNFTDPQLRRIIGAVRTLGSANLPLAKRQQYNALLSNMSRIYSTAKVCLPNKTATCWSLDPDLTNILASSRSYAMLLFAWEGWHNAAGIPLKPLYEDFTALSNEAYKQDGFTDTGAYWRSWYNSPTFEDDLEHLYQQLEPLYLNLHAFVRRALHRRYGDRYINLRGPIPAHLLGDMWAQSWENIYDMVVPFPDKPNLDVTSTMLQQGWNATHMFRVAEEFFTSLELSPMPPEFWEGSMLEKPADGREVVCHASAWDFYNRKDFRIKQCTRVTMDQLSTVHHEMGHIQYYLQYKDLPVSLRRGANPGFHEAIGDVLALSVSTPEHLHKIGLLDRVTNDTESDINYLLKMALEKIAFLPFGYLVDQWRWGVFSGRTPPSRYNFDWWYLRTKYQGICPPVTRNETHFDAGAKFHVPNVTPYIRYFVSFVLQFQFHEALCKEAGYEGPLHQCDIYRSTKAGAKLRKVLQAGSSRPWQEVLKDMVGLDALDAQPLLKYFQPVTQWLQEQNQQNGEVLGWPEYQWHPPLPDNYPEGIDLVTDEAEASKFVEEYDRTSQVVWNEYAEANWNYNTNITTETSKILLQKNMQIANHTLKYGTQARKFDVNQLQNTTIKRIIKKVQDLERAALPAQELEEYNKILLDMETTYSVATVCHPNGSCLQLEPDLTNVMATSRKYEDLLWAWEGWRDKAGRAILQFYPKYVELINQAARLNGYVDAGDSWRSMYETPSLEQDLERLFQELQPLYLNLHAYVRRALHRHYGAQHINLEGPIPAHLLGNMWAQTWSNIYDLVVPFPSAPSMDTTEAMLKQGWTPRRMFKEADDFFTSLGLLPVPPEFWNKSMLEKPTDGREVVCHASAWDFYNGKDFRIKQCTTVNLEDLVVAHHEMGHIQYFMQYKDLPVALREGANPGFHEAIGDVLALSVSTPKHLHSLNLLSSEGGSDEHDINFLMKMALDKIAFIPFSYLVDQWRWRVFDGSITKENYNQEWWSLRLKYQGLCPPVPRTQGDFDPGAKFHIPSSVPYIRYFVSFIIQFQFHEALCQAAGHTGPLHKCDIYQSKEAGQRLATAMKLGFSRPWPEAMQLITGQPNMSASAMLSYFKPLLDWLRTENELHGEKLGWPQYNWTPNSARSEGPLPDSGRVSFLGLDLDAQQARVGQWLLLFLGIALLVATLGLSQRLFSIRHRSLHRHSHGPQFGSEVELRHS

For the compound `O=C(N[C@@H](Cc1ccccc1)P(=O)(O)[C@@H]1CCC[C@H]1C(=O)N[C@@H](Cc1c[nH]c2ccccc12)C(=O)O)OCc1ccccc1`, the Ratio Ki in assay [1] turned out to be 3000.
For `NCCCC[C@H](N[C@@H](CCc1ccccc1)C(=O)O)C(=O)N1CCC[C@H]1C(=O)O`, in assay [2], the Ratio Ki was found to be 4.
For the compound `CS(=O)(=O)N[C@@H](CCCCN)C(=O)NC[C@H](CC1(C(=O)N[C@@H](Cc2ccc(O)cc2)C(=O)O)CCCC1)C(=O)O`, in assay [3], the Ratio Ki is 12.5.
For `NCCCC[C@H](N[C@@H](CCc1ccccc1)C(=O)O)C(=O)N[C@H](Cc1c[nH]c2ccccc12)C(=O)O`, the Ratio Ki in assay [2] is 243.

Values taken from ChEMBL document CHEMBL4402607, “Molecular Basis for Omapatrilat and Sampatrilat Binding to Neprilysin-Implications for Dual Inhibitor Design with Angiotensin-Converting Enzyme” (J Med Chem, 2020).
